The text below walks through data of US6855730B2, “3-methylidenyl-2-indolinone modulators of protein kinase” (Sugen, Inc., priority 1998, dated 2005).

Each structure is given as a SMILES string. Some results are limits rather than exact numbers.

The assay deals with T1, chimeric receptor containing the EGFR extracellular domain and intracellular HER2 kinase domain (Homo sapiens, UniProt P04626).
T1 construct: fused on or other part: EGFR ectodomain + HER2 intracellular part, ATP-site indolinones: HER2's kinase
T1 sequence (P04626 720-1255 limits assumed, change not shown): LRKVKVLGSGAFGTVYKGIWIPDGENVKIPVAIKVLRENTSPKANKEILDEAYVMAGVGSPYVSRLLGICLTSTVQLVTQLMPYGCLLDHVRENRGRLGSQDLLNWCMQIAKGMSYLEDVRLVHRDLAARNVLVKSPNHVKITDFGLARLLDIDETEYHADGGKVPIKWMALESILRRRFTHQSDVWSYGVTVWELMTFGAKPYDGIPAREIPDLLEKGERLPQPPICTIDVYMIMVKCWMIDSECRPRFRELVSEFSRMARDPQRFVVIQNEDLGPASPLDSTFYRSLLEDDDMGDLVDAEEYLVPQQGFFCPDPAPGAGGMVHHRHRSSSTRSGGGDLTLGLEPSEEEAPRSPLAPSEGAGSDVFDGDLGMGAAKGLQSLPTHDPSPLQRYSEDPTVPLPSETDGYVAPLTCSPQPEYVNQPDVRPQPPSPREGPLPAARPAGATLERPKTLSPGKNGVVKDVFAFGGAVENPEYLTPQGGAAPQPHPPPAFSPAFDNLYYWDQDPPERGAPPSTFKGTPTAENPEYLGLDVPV
Put plainly: EGF Receptor-HER2 chimeric receptor assay in whole cells (ELISA). Format: cell-based. As to conditions: read-out: HER-2 kinase IC50. In a few lines:
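NIH3T3 cells overexpressing EGFR-extracellular/HER2-kinase chimera, seeded in 0.5% serum for ~40 h, were pretreated with compound (1% final DMSO) 2 h at 37 °C, then stimulated with 100 nM EGF for 5 min. Lysates captured on anti-EGFR plates; phosphotyrosine detected by anti-Ptyr/HRP ELISA at 410 nm as percent inhibition.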
Consider `COc1cc(C)c(/C=C2/C(=O)Nc3ccc(F)cc32)cc1C(C)C` [Example 30, 5-Fluoro-3-(5-isopropyl-4-methoxy-2-methyl-benzylidene)-1,3-dihydroindol-2-one], for which the IC50 stood at 28 µM.
Under `COc1ccc(/C=C2/C(=O)Nc3cc(NC(C)=O)ccc32)cc1-c1cccs1` [Example 31, N-[3-(4-Methoxy-3-thiophen-2-ylbenzylidene)-2-oxo-2,3-dihydro-1H-indol-6-yl]-acetamide] stands 12.9 µM; under `COc1c(C(C)C)cc(/C=C2/C(=O)Nc3cc(N)ccc32)cc1C(C)C` [Example 32, 6-Amino-3-(3,5-diisoprotyl-4-methoxy-benzylidene)-1,3-dihydroindol-2-one], 90.2 µM; under `CC(=O)Nc1ccc2c(c1)NC(=O)/C2=C\c1ccc2c(c1)CCC(C)(C)O2` [Example 33, N-[3-(2,2-Dimethylchroman-6-ylmethylene)-2-oxo-2,3-dihydro-1H-indol-6-yl]-acetamide], 20.2 µM.
Turning to `COc1ccc(/C=C2/C(=O)Nc3ccccc32)cc1-c1ccsc1` [Example 35, 3-(4-Methoxy-3-thiophen-3-ylbenzylidene)-1,3-dihydroindol-2-one], the IC50 turned out to be 20.7 µM.
Under `COc1cc(C)c(/C=C2/C(=O)Nc3ccc(Br)cc32)cc1C(C)C` [Example 36, 5-Bromo-3-(5-isopropyl-4-methoxy-2-methyl-benzylidene)-1,3-dihydroindol-2-one] stands 20.7 µM; under `COc1ccc(/C=C2/C(=O)Nc3ccc(F)cc32)cc1-c1ccccc1` [Example 37, 5-Fluoro-3-(6-methoxybiphenyl-3-ylmethylene)-1,3-dihydroindol-2-one], 22.5 µM; under `COc1ccc(/C=C2\C(=O)Nc3cccc(C)c32)cc1C(C)C` [Example 38, 3-(3-Isopropyl-4-methoxybenzylidene)-4-methyl-1,3-dihydroindol-2-one], 32.3 µM.
To `COc1cc(/C=C2/C(=O)Nc3ccccc32)c(-c2cccs2)cc1OC` [Example 39, 3-(4,5-Dimethoxy-2-thiophen-2-ylbenzylidene)-1,3-dihydroindol-2-one] belongs 33.7 µM; to `CC(=O)Nc1ccc2c(c1)NC(=O)/C2=C/c1ccc(OCCN2CCOCC2)c(-c2cccs2)c1` [Example 40, N-{3-[4-(2-Morpholin-4-ylethoxy)-3-thiophen-2-ylbenzylidene]-2-oxo-2,3-dihydro-1H-indol-6-yl}-acetamide], 36.6 µM.
To `Cc1cccc2c1/C(=C/c1ccc3c(c1)CCC(C)(C)O3)C(=O)N2` [Example 41, 3-(2,2-Dimethylchroman-6-ylmethylene)-4-methyl-1,3-dihydroindol-2-one] belongs 39.8 µM.
For the compound `O=C1Nc2ccc(F)cc2/C1=C\c1ccc2c(c1)CCO2` [Example 42, 3-(2,3-Dihydrobenzofuran-5-ylmethylene)-5-fluoro-1,3-dihydroindol-2-one], the IC50 amounted to 47.5 µM.
With `COc1ccc(/C=C2/C(=O)Nc3ccc(F)cc32)cc1C1CCCCC1` [Example 43, 3-(3-Cyclohexyl-4-methoxybenzylidene)-5-fluoro-1,3-dihydroindol-2-one], the IC50 turned out to be 52.9 µM.
Consider `COc1ccc(/C=C2/C(=O)Nc3ccc(F)cc32)cc1C(C)C` [Example 44, 5-Fluoro-3-(3-isopropyl-4-methoxybenzylidene)-1,3-dihydroindol-2-one], for which the IC50 was found to be 53.6 µM.
To `COc1cc(C)c(/C=C2/C(=O)Nc3ncccc32)cc1C(C)C` [Example 45, 3-(5-Isopropyl-4-methoxy-2-methylbenzylidene)-1,3-dihydro-pyrrolo[2,3-b]pyridin-2-one] belongs 56.9 µM; to `CCOc1cccc(-c2cc(C=C3C(=O)Nc4ccccc43)ccc2OC)c1` [Example 46, 3-(3′-Ethoxy-6-methoxybiphenyl-3-ylmethylene)-1,3-dihydroindol-2-one], 59.9 µM; to `COc1ccc(/C=C2/C(=O)Nc3ncccc32)cc1C1CCCC1` [Example 47, 3-(3-Cyclopentyl-4-methoxybenzylidene)-1,3-dihydropyrrolo[2,3-b]pyridin-2-one], 60.6 µM.
For `COc1ccc(/C=C2\C(=O)Nc3cccc(C)c32)cc1C1CCCC1` [Example 48, 3-(3-Cyclopentyl-4-methoxybenzylidene)-4-methyl-1,3-dihydroindol-2-one], the IC50 came out at 65 µM.
To `COc1cc(C=C2C(=O)Nc3ccccc32)c(-c2ccccc2OC)cc1OC` [Example 49, 3-(4,5,2′-Trimethoxybiphenyl-2-ylmethylene)-1,3-dihydroindol-2-one] belongs 65.5 µM.
Under `CC(=O)Nc1ccc2c(c1)NC(=O)/C2=C/c1ccc(OCCN2CCOCC2)c(-c2ccsc2)c1` [Example 50, N-{3-[4-(2-Morpholin-4-ylethoxy)-3-thiophen-3-ylbenzylidene]-2-oxo-2,3-dihydro-1H-indol-6-yl}-acetamide] stands 67.6 µM; under `COc1ccc(/C=C2/C(=O)Nc3ccc(Cl)cc32)cc1C1CCCCC1` [Example 51, 5-Chloro-3-(3-cyclohexyl-4-methoxybenzylidene)-1,3-dihydroindol-2-one], 71.8 µM; under `COc1c(C(C)C)cc(/C=C2/C(=O)Nc3cc(NC(=O)OC(C)(C)C)ccc32)cc1C(C)C` [Example 52, [3-(3,5-Diisopropyl-4-methoxybenzylidene)-2-oxo-2,3-dihydro-1H-indol-6-yl]-carbamic acid tert-butyl ester], 72.8 µM.
To `COc1c(C(C)C)cc(/C=C2\C(=O)Nc3cccc(C)c32)cc1C(C)C` [Example 53, 3-(3,5-Diisopropyl-4-methoxybenzylidene)-4-methyl-1,3-dihydroindol-2-one] belongs 80.7 µM; to `COc1c(C(C)C)cc(/C=C2/C(=O)Nc3ccc(Br)cc32)cc1C(C)C` [Example 54, 5-Bromo-3-(3,5-diisopropyl-4-methoxybenzylidene)-1,3-dihydroindol-2-one], 85.6 µM; to `CC(=O)Nc1ccc2c(c1)NC(=O)/C2=C/c1ccc(OCCN2CCOCC2)c(C(C)(C)C)c1` [Example 55, N-{3-[3-tert-Butyl-4-(2-morpholin-4-ylethoxy)-benzylidene]-2-oxo-2,3-dihydro-1H-indol-6-yl}-acetamide], 89.3 µM.
With `COc1c(C)cc(/C=C2/C(=O)Nc3ncccc32)cc1C` [Example 56, 3-(4-Methoxy-3,5-dimethylbenzylidene)-1,3-dihydropyrrolo[2,3-b]pyridin-2-one], the IC50 is 96.2 µM.
Under `CC(C)c1cc(/C=C2/C(=O)Nc3ccc(Br)cc32)cc(C(C)C)c1OCCN1CCOCC1` [Example 57, 5-Bromo-3-[3,5-diisopropyl-4-(2-morpholin-4-ylethoxy)benzylidene]-1,3-dihydroindol-2-one] stands more than 100 µM.
Under `CCOc1cccc(-c2cc(OC)c(OC)cc2/C=C2/C(=O)Nc3ccccc32)c1` [Example 58, 3-(3′-Ethoxy-4,5-dimethoxybiphenyl-2-ylmethylene)-1,3-dihydroindol-2-one] stands more than 100 µM.
To `COc1ccc(/C=C2/C(=O)Nc3ccc(Cl)cc32)cc1-c1cccs1` [Example 59, 5-chloro-3-(4-Methoxy-3-thiophen-2-ylbenzylidene)-1,3-dihydroindol-2-one] belongs more than 100 µM.
Take `COc1ccc(/C=C2/C(=O)Nc3ccc(Cl)cc32)cc1-c1cccnc1` [Example 60]: the IC50 is more than 100 µM.
To `COc1cccc(-c2cc(OC)c(OC)cc2/C=C2/C(=O)Nc3ccc(Cl)cc32)c1` [Example 61, 5-Chloro-3-(4,5-3′-Trimethoxybiphenyl-2-ylmethylene)-1,3-dihydroindol-2-one] belongs more than 100 µM; to `COc1cc(/C=C2/C(=O)Nc3ccccc32)c(-c2ccc3ccccc3c2)cc1OC` [Example 62, 3-(4,5-Dimethoxy-2-naphthalen-2-ylbenzylidene)-1,3-dihydroindol-2-one], more than 100 µM.
In the case of `COc1ccc2c(c1)NC(=O)/C2=C/c1ccc(OC)c(-c2ccsc2)c1` [Example 64, 6-Methoxy-3-(4-methoxy-3-thiophen-3-ylbenzylidene)-1,3-dihydroindol-2-one], the IC50 is more than 100 µM.
Under `COc1ccc(/C=C2/C(=O)Nc3ccccc32)cc1-c1ccccc1` [Example 65, 3-(6-Methoxybiphenyl-3-ylmethylene)-1,3-dihydroindol-2-one] stands more than 100 µM; under `O=C1Nc2ccccc2/C1=C\c1ccc2c(c1)CCO2` [Example 66, 3-(2,3-Dihydrobenzofuran-5-ylmethylene)-1,3-dihydroindol-2-one], more than 100 µM.
Under `COc1ccc(/C=C2/C(=O)Nc3ccc(Cl)cc32)cc1-c1ccccc1` [Example 67, 5-Chloro-3-(6-methoxybiphenyl-3-ylmethylene)-1,3-dihydroindol-2-one] stands more than 100 µM; under `COc1ccc(/C=C2\C(=O)Nc3cccc(C)c32)cc1C1CCCCC1` [Example 68, 3-(3-Cyclohexyl-4-methoxybenzylidene)-4-methyl-1,3-dihydroindol-2-one], more than 100 µM.
To `Cc1cccc2c1/C(=C/c1ccc3c(c1)CCO3)C(=O)N2` [Example 69, 3-(2,3-Dihydrobenzofuran-5-ylmethylene)-4-methyl-1,3-dihydroindol-2-one] belongs more than 100 µM.
As for `COc1ccc(/C=C2/C(=O)Nc3ncccc32)cc1C(C)C` [Example 70, 3-(3-Isopropyl-4-methoxybenzylidene)-1,3-dihydropyrrolo[2,3-b]pyridine-2-one], the IC50 is more than 100 µM.
As to `COc1ccc(/C=C2/C(=O)Nc3ncccc32)cc1-c1ccccc1` [Example 71, 3-(6-Methoxybiphenyl-3-ylmethylene)-1,3-dihydropyrrolo[2,3-b]pyridin-2-one], the IC50 is more than 100 µM.
Under `COc1ccc(/C=C2/C(=O)Nc3ncccc32)cc1C1CCCCC1` [Example 72, 3-(3-Cyclohexyl-4-methoxybenzylidene)-1,3-dihydropyrrolo[2,3-b]pyridin-2-one] stands more than 100 µM.

One may read the IC50 as the midpoint of a concentration-inhibition curve.
